Experiment: xn = mol fraction of the nth substance listed
Settings: 101.3 kPa

CCCCC[N+](CC)(CC)CC.O=S(=O)([N-]S(=O)(=O)C(F)(F)F)C(F)(F)F + CCCCC[P+](CC)(CC)CC.O=S(=O)([N-]S(=O)(=O)C(F)(F)F)C(F)(F)F
viscosity [mPa·s]
Settings	x1 = 0.2	x1 = 0.4	x1 = 0.6	x1 = 0.8	x1 = 1
283.15 K	229	266	316	386	479
288.15 K	168	192	225	270	329
293.15 K	126	143	165	194	233
298.15 K	97	108	–	144	169
303.15 K	75	84	94	109	–
308.15 K	60	66	74	84	96
313.15 K	48.3	53	58	66	75
318.15 K	–	42.9	47.2	53	60
323.15 K	32.7	35.4	38.6	42.9	48
328.15 K	27.4	29.5	32.1	35.4	39.3
333.15 K	23.2	24.9	26.9	29.5	32.6
338.15 K	19.9	21.2	–	24.9	27.4
343.15 K	17.2	18.3	19.6	21.3	–
348.15 K	15	15.9	16.9	–	19.9
353.15 K	–	13.9	14.8	15.9	–

CCCCC[P+](CC)(CC)CC.O=S(=O)([N-]S(=O)(=O)C(F)(F)F)C(F)(F)F + CCCCC[N+](CC)(CC)CC.O=S(=O)([N-]S(=O)(=O)C(F)(F)F)C(F)(F)F
x2 = 0
Settings	viscosity [mPa·s]
288.15 K	150
293.15 K	113
298.15 K	87
303.15 K	69
308.15 K	55
313.15 K	44.5
318.15 K	36.6
328.15 K	25.6
333.15 K	21.8
338.15 K	18.7
343.15 K	16.2
348.15 K	14.2
353.15 K	12.5

CCC[N+](C)(C)C.O=S(=O)([N-]S(=O)(=O)C(F)(F)F)C(F)(F)F + CCC[N+]1(C)CCCC1.O=S(=O)([N-]S(=O)(=O)C(F)(F)F)C(F)(F)F
viscosity [mPa·s]
Settings	x1 = 0.2	x1 = 0.4	x1 = 0.6	x1 = 0.8	x1 = 1
283.15 K	129	–	–	160	–
288.15 K	101	104	–	121	–
293.15 K	78	–	88	94	102
298.15 K	63	65	70	74	79
303.15 K	51	52	56	–	63
308.15 K	–	43.1	–	48.3	51
313.15 K	35.2	35.9	–	39.9	42
318.15 K	29.8	30.3	32.1	–	35
323.15 K	25.5	25.8	27.3	–	–
328.15 K	–	–	23.4	–	25.2
333.15 K	–	–	–	20.9	–
338.15 K	16.8	16.9	17.7	18.2	18.8
343.15 K	14.8	–	15.6	16	16.5
348.15 K	13.2	–	13.8	14.2	14.6
353.15 K	–	11.9	–	12.6	12.9

CCC[N+]1(C)CCCCC1.O=S(=O)([N-]S(=O)(=O)C(F)(F)F)C(F)(F)F + CCC[N+](C)(C)C.O=S(=O)([N-]S(=O)(=O)C(F)(F)F)C(F)(F)F
x2 = 0
Settings	viscosity [mPa·s]
283.15 K	397
288.15 K	277
308.15 K	87
318.15 K	55
323.15 K	45.1
328.15 K	37.3
333.15 K	31.4
348.15 K	19.8
353.15 K	17.3

CCC[N+](C)(C)C.O=S(=O)([N-]S(=O)(=O)C(F)(F)F)C(F)(F)F + CCC[N+]1(C)CCCCC1.O=S(=O)([N-]S(=O)(=O)C(F)(F)F)C(F)(F)F
viscosity [mPa·s]
Settings	x1 = 0.2	x1 = 0.4	x1 = 0.6	x1 = 0.8	x1 = 1
283.15 K	340	292	–	–	179
288.15 K	240	209	180	149	133
293.15 K	175	154	–	–	102
298.15 K	131	117	103	88	79
303.15 K	101	90	80	70	63
308.15 K	78	–	–	56	51
313.15 K	62	57	51	–	42
318.15 K	51	–	–	38	35
323.15 K	41.5	38.4	35.2	31.8	29.5
328.15 K	34.6	32.1	29.6	27	25.2
333.15 K	29.1	27.2	25.3	23.2	21.7
338.15 K	24.8	23.3	21.7	20	18.8
343.15 K	21.4	–	18.9	–	16.5
348.15 K	18.6	17.6	16.5	–	–
353.15 K	16.3	15.4	14.6	13.6	12.9

CCC[N+]1(C)CCCC1.O=S(=O)([N-]S(=O)(=O)C(F)(F)F)C(F)(F)F + CCC[N+](C)(C)C.O=S(=O)([N-]S(=O)(=O)C(F)(F)F)C(F)(F)F
x2 = 0
Settings	viscosity [mPa·s]
283.15 K	126
288.15 K	97
293.15 K	76
303.15 K	50
308.15 K	41.1
313.15 K	34.4
318.15 K	29.2
323.15 K	25
328.15 K	21.6
333.15 K	18.8
338.15 K	16.6
343.15 K	14.7
348.15 K	13.1
353.15 K	11.7

Source: a compilation of properties of binary mixtures (doi:10.1021/acs.jced.8b00334)
